Assay results: patent publication US4289776A, “Xanthine derivatives” (Hoechst Aktiengesellschaft, priority 1973, dated 1981)

Legend:
[1] = test system: blood vascular system; settings: known compounds; cited from earlier work
[2] = test system: mouse; settings: known compounds; cited from earlier work
[3] = test system: human blood; experiment: Fibrinolytic effect in vitro, Hanging-Clot-test; assay type: biochemical; settings: human blood
Method: This effect was measured by the Hanging-Clot-test according to K. N. von Kaulla ("Journ. med. Chem." vol. 8 (1965), page 164) in using human blood. The incubation time was 24 or 48 hours.

[4] = test system: bronchospasm against histamine; experiment: Broncholytic effect at the narcotized guinea-pig, bronchospasm by histamine; assay type: in vivo; settings: Cavia porcellus, iv, 2 min, 2 min. i.p.
Method: (§1) 2. Broncholytic effect at the narcotized guinea-pig
(§2) This test was performed according to H. Konsett and R. Rossler ("Archiv exp. Path. Pharmak." vol. 195 (1940), page 71).

[5] = test system: isolated trancheal chain; experiment: Broncholytic effect at the isolated tracheal chain (isoprenaline reaction)
Method: 3. Broncholytic effect at the isolated trancheal chain
This test was performed according to J. C. Castillo and E. J. de Beer ("J. Pharm. Ther." vol. 90 (1947), page 104).

[6] = test system: cerebral blood perfusion; experiment: Cerebral blood perfusion by fluvography at the cat (i.v.); assay type: in vivo
Method: (§3) Animal tests were carried out with various oxoalkylxanthine derivatives, in which the toxicity in the mouse, the increase of cerebral and muscular blood perfusion at the cat and the fibrinolytic effect in vitro in the Hanging-Clot-test were measured. Furthermore the broncholytic effect of various compounds was tested.
(§4) 1. Cerebral and muscular blood perfusion by fluvography
(§5) These tests were performed at the cat according to K. Popendiker, I. Boksay and V. Bollmann ("Arzneimittel Forschung" vol. 21 (1971), page 1160).
(§6) The values obtained in the mentioned test 1 are given as Δλ and as half-life values in Table 2 and the results of tests 2 to 5 are enumerated in Table 3. In Table 2 Δλ is the change of blood perfusion.

[7] = test system: bronchospasm against acetylcholine; experiment: Broncholytic effect at the narcotized guinea-pig, bronchospasm by acetylcholine; assay type: in vivo; settings: Cavia porcellus, iv, 2 min, 2 min. i.p.
Method: as §1, §2

[8] = test system: muscular blood perfusion; experiment: Muscular blood perfusion by fluvography at the cat (i.v.); assay type: in vivo
Method: as §3, §4, §5, §6

[9] = test system: cerebral blood circulation; experiment: Cerebral blood circulation after intraduodenal administration to narcotized cats; assay type: in vivo, cat
[10] = test system: mouse; experiment: Toxicity in the mouse (LD50); settings: in vivo, ip
Method: (§7) The toxicity was determined as LD50 --range or as LD50 according to Litchfield and Wilcoxon ("J. Pharmacol. exp. Ther." 97 (1949), page 399) in the mouse.

[11] = Toxicity in the mouse (LD50); settings: in vivo, ip, mice, intraperitoneally, read-out: LD50 -value for mice
Method: as §7

CC(=O)CCCCn1c(=O)c2c(ncn2C)n(C)c1=O [Sample 8, 1-(5-Oxohexyl)-3,7-dimethylxanthine, reference compound]
Vascular dilatory action [1]: vaso-dilatory effect
Toxicity [2]: low toxicity
Minimum concentration for partial lysis ([3]; 24 hours incubation): 100 mmol
Minimum concentration for partial lysis ([3]; 48 hours incubation (bracket)): 50 mmol
change in vivo at 3 mg/kg ([4]; 3 mg/kg i.v.): -4%
change in vivo at 5 mg/kg ([4]; 5 mg/kg i.v.): -94%
change in vivo at 10 mg/kg ([4]; 10 mg/kg i.v.): -83%
change in vivo at 20 mg/kg ([4]; 20 mg/kg i.v.): -100%
Inhibition of isoprenaline reaction in % ([5]; concentration 3 × 10^-5): 30%
Inhibition of isoprenaline reaction in % ([5]; concentration 3 × 10^-6): 0%
Inhibition of isoprenaline reaction in % ([5]; concentration 10^-4): 89%
Inhibition of isoprenaline reaction in % ([5]; concentration 10^-5): 5%
Cerebral blood perfusion half-life ([6]; 1 mg/kg i.v.): 0.9 min
Cerebral blood perfusion Δλ (change of blood perfusion) ([6]; 1 mg/kg i.v.): +0.44
Cerebral blood perfusion half-life ([6]; 5 mg/kg i.v.): 2.4 min
Cerebral blood perfusion Δλ (change of blood perfusion) ([6]; 5 mg/kg i.v.): +0.86
Cerebral blood perfusion half-life ([6]; 10 mg/kg i.v.): 8.6 min
Cerebral blood perfusion Δλ (change of blood perfusion) ([6]; 10 mg/kg i.v.): +1.15
change in vivo at 3 mg/kg ([7]; 3 mg/kg i.v.): -15%
change in vivo at 10 mg/kg ([7]; 10 mg/kg i.v.): -41%
change in vivo at 20 mg/kg ([7]; 20 mg/kg i.v.): -72%
Muscular blood perfusion half-life ([8]; 1 mg/kg i.v.): 1.10 min
Muscular blood perfusion Δλ (change of blood perfusion) ([8]; 1 mg/kg i.v.): +0.02
Muscular blood perfusion half-life ([8]; 5 mg/kg i.v.): 3.30 min
Muscular blood perfusion Δλ (change of blood perfusion) ([8]; 5 mg/kg i.v.): +0.03
Muscular blood perfusion half-life ([8]; 10 mg/kg i.v.): 2.80 min
Muscular blood perfusion Δλ (change of blood perfusion) ([8]; 10 mg/kg i.v.): +0.15
Muscular blood perfusion half-life ([8]; 20 mg/kg i.v.): > 15 min
Muscular blood perfusion Δλ (change of blood perfusion) ([8]; 20 mg/kg i.v.): +1.38

CC(=O)CCCCn1cnc2c1c(=O)[nH]c(=O)n2C [Example 11, 3-methyl-7-(5-oxohexyl)-xanthine]
Increase in cerebral blood circulation compared with ethylene-diamine-theophylline [9]: by several times superior
Increase in the cerebral blood circulation [9]: significant and permanent increase in the cerebral blood circulation
Compatibility compared with ethylene-diamine-theophylline [10]: much more compatible
LD50 [11]: 1000 to 1500 mg/kg
